Assay results as given in patent US11987557B2, “Phenalene-1-one-containing photosensitizer composition, phenalene-1-one compound and the use thereof” ([…], priority 2017, dated 2024).
Values joined by “and” are separate entries in the source; they are usually repeats but may differ in a detail not shown here. Equal values may be shown once.

Assays:
[1] = system: Staphylococcus aureus ATCC 25923; assay: Photodynamic inactivation of S. aureus on coated sample supports, LED 405 nm (Example 3); assay type: cell-based
Description: The photosensitizer was dissolved in the respective paint system and applied to various square sample supports (width: 4 cm, length: 4 cm, thickness: 3 mm) formed from PVC or PMMA and then dried. After drying the coating, a specific quantity of bacteria from the species Staphylococcus aureus ATCC 25923 was applied to the surface.
In this regard, firstly, an overnight (ON) culture of S. aureus in 5 mL of Mueller Hinton broth (Carl Roth GmbH+Co. KG, Karlsruhe, DE) was inoculated with a single colony from an agar plate and incubated at 37° C. and 180 rpm on a shaker for 18-20 hours.
On the day of the test, in each case 1 mL of ON culture was centrifuged (Hettich Universal 320 R centrifuge (Andreas Hettich GmbH & Co. KG, Tuttlingen, DE); swing-out rotor 1494; 10 Min, 3000 rpm, RT). The supernatant was discarded and the pellet was re-suspended in 1 mL of Milli-Q water, which is commercially available from Merck (KGaA, Darmstadt, DE) (designation “Milli-Q Integral Ultra-pure Water (Type 1)”).
After determining the optical density at 600 nm (“Specord 50 plus”, spectrometer, Analytik Jena), the re-suspended bacteria were diluted with Milli-Q-water to a cell count of 10^5 bacteria/mL. From the dilution, in each case 100 μL was dripped onto the sample support using a pipette (droplet size approximately 1 cm^2).
The sample support was then dried in air under a clean bench in the dark for approximately 2 hours, until water could no longer be seen on the surface.
The respective sample supports were irradiated with monochrome light at a wavelength of 405 nm with the aid of a LED module (test area 5×5 cm homogeneously illuminated; high power LEDs) or with room lighting (Osram Lumilux Cool White, colour temperature 4000 K) at the intensities and for the irradiation periods given below. Directly after irradiation, the bacteria were wiped from the surface of the respective sample support with a sterile cloth and re-suspended in 1 mL of Mueller-Hinton broth.
Next, the sample was serially diluted (1:10 dilution stages: 180+20 μL; to dilution stage 10^5).
For each dilution stage (100 to 10^−5), 3× respectively 20 μL of broth was dripped onto a Mueller-Hinton agar plate (Carl Roth GmbH+Co. KG) using a pipette, and spread. The agar plates were then incubated at 37° C. ON.
On the following day, the colonies from all of the dilution stages which could be counted of an experiment were counted and the CFU/mL was calculated.
Next, from the value for the CFU/mL, the log10 eradication rate was calculated. The reference point in each experiment was the reference control (=100% count of bacteria employed).
A test was composed of the following: • coated sample support: without photosensitizer, not irradiated (“reference control”) • coated sample support: with photosensitizer, not irradiated (“dark control”) • coated sample support: without photosensitizer and irradiated (“light control”) • coated sample support: with photosensitizer and irradiated (“sample”)
• Coated material: PMMA, 3 mm thickness, 4×4 cm • Drying time approximately 1 hour • Drying temperature 15-30° C. • Application with a spray gun • Concentration of photosensitizer used: […] (61.55 mg/L) Irradiation Conditions:
• Coated material: PVC, 3 mm thickness, 4×4 cm • Drying time approximately 2 hours • Drying temperature 15-30° C. • Relative humidity for the drying time 30-70% • Application with a spray gun • Concentration of photosensitizer used: […] (61.55 mg/L) Irradiation Conditions: […]

S. aureus [2] = assay: Phototoxic effect of coated surface in office lighting (Example 4); assay type: cell-based, Staphylococcus aureus; conditions: 2-C paint from Example 2.1, storage 24 h, illumination period 12 h
Description: In a subsequent test, the 2-C paint system was irradiated with room lighting. In this regard, the photoactive surfaces produced in Example 2.1 with the photosensitizers SAPN-19c and SAPN-19 were additionally stored exposed in areas with normal office lighting (standard fluorescent lights, Osram Cool White, 840) and the phototoxic action on S. aureus with the same pathogen counts as in Example 3 was analysed after specific periods. In this regard, the photoactive layers were distanced from the light source by approximately 40 cm. It was shown that for the photosensitizer SAPN-19c, after storage for 24 h under standard office lighting conditions with an illumination period of 12 h, that ail pathogens on the surface had been completely eradicated (approximately 5.5 log10 units, corresponding to >99.999% reduction).

S. aureus [3] = assay: Long-term test of photoactive stability after pre-irradiation (Example 5); assay type: cell-based, Staphylococcus aureus
Description: In order to test the stability of the lacks produced, a long term test was carried out.
The test surfaces were pre-irradiated for different time periods (5, 25, 50, 75 h) at an output of 5 mW cm^−2 in order to establish whether the respective photosensitizer in PUR was affected in a manner such that the phototoxic activity of the surface was reduced:
Following the pre-irradiation, the surfaces as described above were contaminated with S. aureus then irradiated for 2 h (corresponds to 5 mW cm^−2) and the phototoxic efficiency was measured.

SMILES	mean eradication of S. aureus ([1]; 1-C polyurethane paint, water-based, on PVC, LED 405 nm, 10 mW/cm^2, 10 minutes (6 J/cm^2), three independent tests)	eradication of S. aureus ([1]; 2-C polyurethane paint on PMMA, LED 405 nm, 0.7 mW/cm^2, after 20 minutes, two independent tests) [log10 units]	log10 reduction of S. aureus ([1]; 2-C polyurethane paint on PMMA, photosensitizer 200 μm (61.55 mg/L), LED 405 nm, 10 mW/cm^2, 2 minutes (1.2 J/cm^2), mean of 3 independent experiments) [log10]	extermination of S. aureus ([1]; 2-C polyurethane paint on PMMA, photosensitizer 200 μm (61.55 mg/L), LED 405 nm, 20 mW/cm^2, 2 minutes (2.4 J/cm^2)) [log10 units]	reduction of the bacteria involved ([1]; coating at 6 J/cm^2, equivalent of 3 log10 units) [%]	eradication of pathogens on the surface (S. aureus [2]; standard office lighting (Osram Cool White, 840), approx. 40 cm)	reduction of pathogens on the surface (S. aureus [2]; standard office lighting) [%]	phototoxic efficiency after pre-irradiation (S. aureus [3]; PUR surface pre-irradiated 5, 25, 50, 75 h at 5 mW cm^−2, then contaminated with S. aureus and irradiated 2 h)	state of the test surfaces after one month (S. aureus [3]; porphyrin-doped surfaces, after one month)
CC(C)(O)c1cc[n+](CC2=Cc3cccc4cccc(c34)C2=O)cc1 [SAPN-19c]	3.0 log10 units and 3 log10 units	1.9	1.8	2.7	99.9	approximately 5.5 log10 units	> 99.999		
OCCOCCOc1ccc(-c2c3nc(c(-c4ccccc4)c4ccc([nH]4)c(-c4ccccc4)c4nc(c(-c5ccccc5)c5ccc2[nH]5)C=C4)C=C3)cc1 [TPP sensitizer WBII/2]								noticeable reduction in the phototoxic efficiency	discoloured significantly and they lost phototoxic activity
